Test results reported in PMC9780499, “Designing double-site lipidated peptide amphiphiles as potent antimicrobial biomaterials to combat multidrug-resistant bacteria” (Frontiers in Microbiology, 2022).
≈ marks a conversion by molar mass, not a printed value. Where two headings read alike, the source gives them in different places. Ends that are not written are not given here. Peptide text beside a SMILES is read from it. * marks the point of attachment. Decanoyl = CCCCCCCCCC(=O)*; Butyryl = CCCC(=O)*

Experiments:
E. coli 25922 = type: cell-based, Escherichia coli; conditions: 25922, 20 h
Source text: (§1) Escherichia coli ATCC25922, E. coli UB1005, Pseudomonas aeruginosa ATCC27853, Salmonella typhimurium ATCC14028, S. typhimurium C7731, Staphylococcus aureus ATCC29213, Methicillin-resistant S. aureus (MRSA) ATCC43300, S. epidermidis ATCC12228, and Enterococcus faecalis ATCC29212 were stored by the institute of animal nutrition, Northeast Agricultural University (Harbin, China). Multidrug-Resistant E. coli HP73 and E. coli HP74 were clinically isolated from swine-derived Escherichia coli and stored by the institute of animal nutrition, Northeast Agricultural University (Harbin, China).
(§2) The MICs were determined using a broth microdilution method with reference to Clinical and Laboratory Standards Institute (CLSI) guidelines ([Wiegand et al., 2008]). After a two-fold serial dilution of the peptides (50 μl, dilution buffer: 0.01% acetic acid containing 0.2% BSA) prepared in a 96-well plate, a series of an equal volume of bacterial solution (50 μl) prepared in Mueller-Hinton broth (MHB) were added to the same 96-well plate, and the final bacterial inoculum size in each well of the 96-well plate was approximately 5 × 10^5 CFU/ml. As positive and negative controls, bacteria solution without peptides and blank samples without bacteria were prepared in the same 96-well plate. […] The lowest peptide concentration at which there was no increase in optical density was referred to as the MIC.

E. coli UB1005 = type: cell-based, Escherichia coli; conditions: UB1005, 20 h
Source text: as §1, §2

P. aeruginosa 27853 = type: cell-based, Pseudomonas aeruginosa; conditions: 27853, 20 h
Source text: as §1, §2

S. typhimurium 14028 = type: cell-based, Salmonella typhimurium; conditions: 14028, 20 h
Source text: as §1, §2

S. typhimurium C7731 = type: cell-based, Salmonella typhimurium; conditions: C7731, 20 h
Source text: as §1, §2

S. aureus 29213 = type: cell-based, Staphylococcus aureus; conditions: 29213, 20 h
Source text: as §1, §2

S. epidermidis 12228 = type: cell-based; conditions: 12228, 20 h
Source text: as §1, §2

E. faecalis 29212 = type: cell-based, Enterococcus faecalis; conditions: 29212, 20 h
Source text: as §1, §2

MRSA 43300 = type: cell-based, Methicillin-resistant S. aureus; conditions: 43300, 20 h
Source text: as §1, §2

9 bacterial strains = assay: Geometric mean MIC over the 9 bacterial strains; type: cell-based; conditions: geometric mean of the 9 strains of Table 1
Experimental: as §2

HEK293T = assay: MTT cytotoxicity assay; type: cell-based, human; conditions: 1 day incubation; for Cytotoxicity toward HEK293T: at the test concentrations
Experimental: (§3) 3-(4,5-dimethylthiozol-2-yl)-2,5-diphenyltetrazolium bromide (MTT) assay and live/dead cell staining assay were conducted to assess the peptide cytotoxicity. For the MTT assay, cell lines were seeded and passaged twice in high-glucose Dulbecco’s modified Eagle’s medium (DMEM, containing 100 μg/ml streptomycin, 100 U/ml penicillin, and 10% vol/vol fetal bovine serum) or Dulbecco’s Modified Eagle Medium/Nutrient Mixture F-12 (DMEM/F-12, containing 100 μg/ml streptomycin, 100 U/ml penicillin, and 10% vol/vol fetal bovine serum) at a 5% CO2 incubator (37°C). The cells (approximately 50,000 cells per well) were cultured in a 96-well plate at a 5% CO2 incubator for 1 day. Then various concentrations of peptide solutions (50 μl) were added to the plate and incubated for another 1 day. The cells solution without peptides and blank samples without cells and peptides were prepared in the same 96-well plate as positive and negative controls, respectively. Subsequently, MTT (0.5 mg/ml, 20 μl per well) was added and the plate was incubated for another 4 h. Removed all supernatant from the plate and added 150 μl of dimethyl sulfoxide. Finally, a microplate reader (Tecan GENios F129004, Austria) was used to record the absorbance data at OD570 nm. Melittin was employed as a control peptide. The cell viability was calculated using the previously described equation ([Lai et al., 2021]).

IPEC-J2 = assay: MTT cytotoxicity assay; type: cell-based, porcine; conditions: 1 day incubation; for Cytotoxicity toward IPEC-J2: at the test concentrations
Experimental: as §3

E. coli HP73 = assay: microbe, parasite or virus in culture; type: cell-based, Escherichia coli; conditions: read-out: MICs, E. coli HP73
Source text: as §1, §2

E. coli HP74 = assay: microbe, parasite or virus in culture; type: cell-based, Escherichia coli; conditions: read-out: MICs, E. coli HP74
Source text: as §1, §2

[1] = Escherichia coli, HP73, multidrug-resistant, colistin-resistant swine clinical isolate, broth microdilution, MHB, 37°C 20 h
[2] = Escherichia coli, HP74, multidrug-resistant, colistin-resistant swine clinical isolate, broth microdilution, MHB, 37°C 20 h
[3] = multidrug-resistant, colistin-resistant swine clinical isolate, broth microdilution, MHB, 37°C 20 h

WLKKLKKK(Ac)LKKLK(Ac)KK [WL-C2]
MICs, E. coli 25922 (E. coli 25922): 8 µM
MICs, E. coli UB1005 (E. coli UB1005): 8 µM
MICs, P. aeruginosa 27853 (P. aeruginosa 27853): 16 µM
MICs, S. typhimurium 14028 (S. typhimurium 14028): 16 µM
MICs, S. typhimurium C7731 (S. typhimurium C7731): 16 µM
MICs, S. aureus 29213 (S. aureus 29213): 64 µM
MICs, S. epidermidis 12228 (S. epidermidis 12228): 64 µM
MICs, E. faecalis 29212 (E. faecalis 29212): 128 µM
MICs, MRSA 43300 (MRSA 43300): 64 µM
GM, geometric mean MICs from the 9 bacterial strains (9 bacterial strains): 27.43 µM
Cytotoxicity toward HEK293T (HEK293T): no significant cytotoxicity
Cytotoxicity toward IPEC-J2 (IPEC-J2): no significant cytotoxicity

CC[C@H](C)[C@H](NC(=O)CN)C(=O)NCC(=O)N[C@@H](C)C(=O)N[C@H](C(=O)N[C@@H](CC(C)C)C(=O)N[C@@H](CCCCN)C(=O)N[C@H](C(=O)N[C@@H](CC(C)C)C(=O)N[C@H](C(=O)N[C@H](C(=O)NCC(=O)N[C@@H](CC(C)C)C(=O)N1CCC[C@H]1C(=O)N[C@@H](C)C(=O)N[C@@H](CC(C)C)C(=O)N[C@H](C(=O)N[C@@H](CO)C(=O)N[C@@H](Cc1c[nH]c2ccccc12)C(=O)N[C@H](C(=O)N[C@@H](CCCCN)C(=O)N[C@@H](CCCNC(=N)N)C(=O)N[C@@H](CCCCN)C(=O)N[C@@H](CCCNC(=N)N)C(=O)N[C@@H](CCC(N)=O)C(=O)N[C@@H](CCC(N)=O)C(N)=O)[C@@H](C)CC)[C@@H](C)CC)[C@@H](C)O)[C@@H](C)O)C(C)C)C(C)C [Melittin, reference compound]
Concentration above which significant cytotoxicity toward HEK293T (HEK293T): greater than 8 μM
Concentration above which significant cytotoxicity toward IPEC-J2 (IPEC-J2): > 16 µM

CO[C@H]1/C=C/O[C@@]2(C)Oc3c(C)c(O)c4c(O)c(c(/C=N/N5CCN(C)CC5)c(O)c4c3C2=O)NC(=O)/C(C)=C\C=C\[C@H](C)[C@H](O)[C@@H](C)[C@@H](O)[C@@H](C)[C@H](OC(C)=O)[C@@H]1C [Rifampicin]
MIC (E. coli HP73; [1]): > 128 µM
MIC (E. coli HP74; [2]): 16 µM (≈ 13.2 µg/mL)

CN[C@H](CC(C)C)C(=O)N[C@H]1C(=O)N[C@@H](CC(N)=O)C(=O)N[C@H]2C(=O)N[C@H]3C(=O)N[C@H](C(=O)N[C@H](C(=O)O)c4cc(O)cc(O)c4-c4cc3ccc4O)[C@H](O)c3ccc(c(Cl)c3)Oc3cc2cc(c3O[C@@H]2O[C@H](CO)[C@@H](O)[C@H](O)[C@H]2O[C@H]2C[C@](C)(N)[C@H](O)[C@H](C)O2)Oc2ccc(cc2Cl)[C@H]1O [Vancomycin]
MIC (E. coli HP73; Escherichia coli, HP73, 20 h): 64 µM (≈ 92.8 µg/mL)
MIC (E. coli HP74; Escherichia coli, HP74, 20 h): 32 µM (≈ 46.4 µg/mL)

CC[C@H]1OC(=O)[C@H](C)[C@@H](O[C@H]2C[C@@](C)(OC)[C@@H](O)[C@H](C)O2)[C@H](C)[C@@H](O[C@@H]2O[C@H](C)C[C@H](N(C)C)[C@H]2O)[C@](C)(O)C[C@@H](C)C(=O)[C@H](C)[C@@H](O)[C@]1(C)O [Erythromycin]
MIC (E. coli HP73; [1]): > 128 µM
MIC (E. coli HP74; [2]): > 128 µM

CCCC(=O)NCCCC[C@H](NC(=O)[C@H](CC(C)C)NC(=O)[C@H](CCCCN)NC(=O)[C@H](CCCCN)NC(=O)[C@H](CC(C)C)NC(=O)[C@H](CCCCNC(=O)CCC)NC(=O)[C@H](CCCCN)NC(=O)[C@H](CCCCN)NC(=O)[C@H](CC(C)C)NC(=O)[C@H](CCCCN)NC(=O)[C@H](CCCCN)NC(=O)[C@H](CC(C)C)NC(=O)[C@@H](N)Cc1c[nH]c2ccccc12)C(=O)N[C@@H](CCCCN)C(=O)N[C@@H](CCCCN)C(=O)O [WL-C4] (H-WLKKLKKK(Butyryl)LKKLK(Butyryl)KK-OH)
MICs, E. coli 25922 (E. coli 25922): 8 µM
MICs, E. coli UB1005 (E. coli UB1005): 4 µM
MICs, P. aeruginosa 27853 (P. aeruginosa 27853): 2 µM
MICs, S. typhimurium 14028 (S. typhimurium 14028): 4 µM
MICs, S. typhimurium C7731 (S. typhimurium C7731): 4 µM
MICs, S. aureus 29213 (S. aureus 29213): 16 µM
MICs, S. epidermidis 12228 (S. epidermidis 12228): 16 µM
MICs, E. faecalis 29212 (E. faecalis 29212): 32 µM
MICs, MRSA 43300 (MRSA 43300): 16 µM
GM, geometric mean MICs from the 9 bacterial strains (9 bacterial strains): 8.00 µM
Cytotoxicity toward HEK293T (HEK293T): no significant cytotoxicity
Cytotoxicity toward IPEC-J2 (IPEC-J2): no significant cytotoxicity

CC(C)(O/N=C(\C(=O)N[C@@H]1C(=O)N2C(C(=O)[O-])=C(C[n+]3ccccc3)CS[C@H]12)c1csc(N)n1)C(=O)O [Ceftazidime]
MIC (E. coli HP73; [1]): 128 µM (≈ 70 µg/mL)
MIC (E. coli HP74; [2]): 32 µM (≈ 17.5 µg/mL)

CNC(C)C1CCC(N)C(OC2C(N)CC(N)C(OC3OCC(C)(O)C(NC)C3O)C2O)O1 (stereo not shown) [Gentamicin]
MIC (E. coli HP73; [1]): 128 µM (≈ 61.1 µg/mL)
MIC (E. coli HP74; [2]): 128 µM (≈ 61.1 µg/mL)

Colistin
MIC (E. coli HP73; [3]): 4 µM
MIC (E. coli HP74; [3]): 4 µM

WLKKLKKKLKKLKKK [WL]
MICs, E. coli 25922 (E. coli 25922): 32 µM
MICs, E. coli UB1005 (E. coli UB1005): 32 µM
MICs, P. aeruginosa 27853 (P. aeruginosa 27853): 32 µM
MICs, S. typhimurium 14028 (S. typhimurium 14028): 32 µM
MICs, S. typhimurium C7731 (S. typhimurium C7731): 32 µM
MICs, S. aureus 29213 (S. aureus 29213): 128 µM
MICs, S. epidermidis 12228 (S. epidermidis 12228): 128 µM
MICs, E. faecalis 29212 (E. faecalis 29212): >128 µM
MICs, MRSA 43300 (MRSA 43300): 128 µM
GM, geometric mean MICs from the 9 bacterial strains (9 bacterial strains): 64.00 µM
Cytotoxicity toward HEK293T (HEK293T): no significant cytotoxicity
Cytotoxicity toward IPEC-J2 (IPEC-J2): no significant cytotoxicity

CCCCCCCCCC(=O)NCCCC[C@H](NC(=O)[C@H](CC(C)C)NC(=O)[C@H](CCCCN)NC(=O)[C@H](CCCCN)NC(=O)[C@H](CC(C)C)NC(=O)[C@H](CCCCNC(=O)CCCCCCCCC)NC(=O)[C@H](CCCCN)NC(=O)[C@H](CCCCN)NC(=O)[C@H](CC(C)C)NC(=O)[C@H](CCCCN)NC(=O)[C@H](CCCCN)NC(=O)[C@H](CC(C)C)NC(=O)[C@@H](N)Cc1c[nH]c2ccccc12)C(=O)N[C@@H](CCCCN)C(=O)N[C@@H](CCCCN)C(=O)O [WL-C10] (H-WLKKLKKK(Decanoyl)LKKLK(Decanoyl)KK-OH)
MICs, E. coli 25922 (E. coli 25922): >64 µM
MICs, E. coli UB1005 (E. coli UB1005): 16 µM
MICs, P. aeruginosa 27853 (P. aeruginosa 27853): >128 µM
MICs, S. typhimurium 14028 (S. typhimurium 14028): >128 µM
MICs, S. typhimurium C7731 (S. typhimurium C7731): >128 µM
MICs, S. aureus 29213 (S. aureus 29213): >128 µM
MICs, S. epidermidis 12228 (S. epidermidis 12228): >128 µM
MICs, E. faecalis 29212 (E. faecalis 29212): >128 µM
MICs, MRSA 43300 (MRSA 43300): >128 µM
GM, geometric mean MICs from the 9 bacterial strains (9 bacterial strains): 94.06 µM
Concentration above which significant cytotoxicity toward HEK293T (HEK293T): greater than 32 μM
Concentration above which significant cytotoxicity toward IPEC-J2 (IPEC-J2): greater than 32 μM

CC1COc2c(N3CCN(C)CC3)c(F)cc3c(=O)c(C(=O)O)cn1c23 (stereo not shown) [Ofloxacin]
MIC (E. coli HP73; [1]): > 128 µM
MIC (E. coli HP74; [2]): > 128 µM

CCn1cc(C(=O)O)c(=O)c2cc(F)c(N3CCNCC3)cc21 [Norfloxacin]
MIC (E. coli HP73; [1]): > 128 µM
MIC (E. coli HP74; [2]): 128 µM (≈ 40.9 µg/mL)

Kanamycin A
MIC (E. coli HP73; [3]): >128 µM
MIC (E. coli HP74; [3]): >128 µM

Polymyxin B
MIC (E. coli HP73; [3]): 8 µM
MIC (E. coli HP74; [3]): 4 µM
